Values quoted from earlier work in US6562757B1, “Plant-protection treatment of plants and compositions which can be used for this purpose” (Cerexagri S.A., priority 1999, dated 2003).

Conditions: pH 7

Row | SMILES | amount of soluble aqueous copper (Cu2+(aq)) released
1 | [Cu+2].[OH-].[OH-] [copper hydroxide] | 1 to 10 mg/L
2 | [Cl-].[Cu+2].[Cu+2].[OH-].[OH-].[OH-] [copper oxychloride] | 1 to 10 mg/L
